Experimental data taken from patent US10239884B2, “Coelenterazine compounds and uses thereof” (KEIO UNIVERSITY, priority 2017, dated 2019).

Assays:
[1] = biological target: T1, RLuc8 (Renilla reniformis, UniProt P27652, A143M/A55T/C124A/K136R/M185V/M253L/S130A/S287L); assay type: biochemical; details: 2 μM substrate in PBS pH 7.4, cell lysate, maximum intensity over 1 second, relative value
T1 construct: expressed in transfected cells; host or cells: COST cells (so in the source)
Text: (§1) The luciferases were respectively expressed in COST cells using an expression vector (pcDNA3.1(+), commercially available from Invitrogen) comprising the sequence encoding native Renilla Luciferase (RLuc) (trade name pGL4.75, commercially available from Promega) or an expression vector (trade name pcDNA3.1(+), commercially available from Invitrogen) comprising the sequence encoding a RLuc derivative RLuc8 or RLuc8.6-535 (Reference: Loening, A. M. et al., Nat. Methods, 2007, 4, 641-643.). The cells were lysed using a Renilla Luciferase Lysis Buffer (E291A, Promega), and the lysate was directly used as an enzyme solution. […] Bioluminescence was measured according to the protocol of Renilla Luciferase Assay System (Cat. No. E 2810; Promega). The luminescent substrate was dissolved in methanol to prepare a 2 mM solution. The solution was diluted to 2 μM with PBS buffer (pH 7.4), and the diluted solution was used as a substrate solution. To 200 μL of the substrate solution, 4 μL of the cell lysate containing RLuc, RLuc 8 or RLuc8.6-535 was added to start the luminescent reaction. The luminescence intensity was measured with a Berthold Lumat LB 9507 for 1 second, and indicated by the maximum luminescence intensity (I). The luminescence intensity of the native CTZ by RLuc8 was set to be 1.0, and the other bioluminescence intensities were normalized to be relative values to that of native CTZ.

[2] = biological target: T1, RLuc8; assay type: biochemical; details: bioluminescence spectrum, ATTO LumiFL
Experimental: (§2) As in the method for measuring bioluminescence intensity described above, luminescence spectrum was measured according to the protocol of Renilla Luciferase Assay System (Cat. No. E 2810; Promega). The luminescence spectrum was measured using ATTO LumiFL. The maximum luminescence intensities were normalized to be relative values to 1.0 upon determination of the maximum luminescence wavelength.

[3] = biological target: T2, RLuc8.6-535 (Renilla reniformis, UniProt P27652, A123S/A143M/A55T/C124A/D154M/D162E/E155G/I163L/K136R/M185L/M253L/S130A/S287L); assay type: biochemical; set-up: expressed in transfected cells; host or cells: COST cells (so in the source); details: 2 μM substrate in PBS pH 7.4, cell lysate, maximum intensity over 1 second, relative value
Text: as §1

[4] = biological target: T2, RLuc8.6-535; assay type: biochemical; set-up: expressed in transfected cells; host or cells: COST cells (so in the source); details: bioluminescence spectrum, ATTO LumiFL
Experimental: as §2

[5] = biological target: T3, Renilla Luciferase (RLuc) (Renilla reniformis, UniProt P27652); details: cited from earlier work
T3 sequence (P27652 1-311): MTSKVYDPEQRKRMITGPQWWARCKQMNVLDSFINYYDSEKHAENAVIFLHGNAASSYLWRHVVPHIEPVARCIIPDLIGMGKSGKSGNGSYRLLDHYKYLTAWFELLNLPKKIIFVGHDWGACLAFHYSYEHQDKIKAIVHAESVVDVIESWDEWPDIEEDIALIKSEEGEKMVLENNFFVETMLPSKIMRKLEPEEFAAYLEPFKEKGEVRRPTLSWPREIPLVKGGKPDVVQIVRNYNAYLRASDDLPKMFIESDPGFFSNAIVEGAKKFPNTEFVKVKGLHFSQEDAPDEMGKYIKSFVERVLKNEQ

T1 sequence (P27652 whole entry A55T/C124A/S130A/K136R/A143M/M185V/M253L/S287L): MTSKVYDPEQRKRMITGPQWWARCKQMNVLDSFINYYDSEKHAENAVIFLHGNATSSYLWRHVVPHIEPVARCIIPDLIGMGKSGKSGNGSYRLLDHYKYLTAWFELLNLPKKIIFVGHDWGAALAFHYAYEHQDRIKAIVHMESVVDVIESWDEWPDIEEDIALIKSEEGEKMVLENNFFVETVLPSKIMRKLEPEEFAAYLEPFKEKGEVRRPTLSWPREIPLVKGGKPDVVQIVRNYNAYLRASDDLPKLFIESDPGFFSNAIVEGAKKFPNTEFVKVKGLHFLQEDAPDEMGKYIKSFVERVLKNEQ
T2 sequence (P27652 whole entry A55T/A123S/C124A/S130A/K136R/A143M/D154M/E155G/D162E/I163L/M185L/M253L/S287L): as the sequence (P27652 whole entry A55T/C124A/S130A/K136R/A143M/M185V/M253L/S287L) above, with A123S, D154M, E155G, D162E, I163L, V185L counted along it

Row | Compound | RLuc8 luminescence intensity (%) [1] [%] | RLuc8 half-width (nm) [2] | RLuc8 maximum luminescence wavelength (nm) [2] | RLuc8.6-535 luminescence intensity (%) [3] [%] | RLuc8.6-535 half-width (nm) [4] | RLuc8.6-535 maximum luminescence wavelength (nm) [4] [nm] | luminescence intensity relative to the native RLuc luminescence system [5] | shift of luminescence wavelength to the shorter wavelength side compared to native CTZ [5] | luminescence wavelength ([5]; emits light at around)
1 | O=c1c(Cc2ccccc2)nc2c(Cc3ccccc3)[nH]c(-c3ccc(OCCO)cc3)cn1-2 [6-Alkyl2OH-2H-CTZ] | 6.21 | [65] nm | 413 nm | 6.24 | [68] nm | 407 | – | – | –
2 | O=c1c(Cc2ccc(O)cc2)nc2c(Cc3ccccc3)[nH]c(-c3ccc(OCCO)cc3)cn1-2 [6-Alkyl2OH-CTZ] | 15.0 | [59] nm | 411 nm | 43.2 | [56] nm | 411 | – | – | –
3 | CCCCOc1ccc(-c2cn3c(=O)c(Cc4ccccc4)nc-3c(Cc3ccccc3)[nH]2)cc1 [6-Alkyl3-2H-CTZ] | 2.00 | [50] nm | 411 nm | 28.4 | [53] nm | 413 | – | – | –
4 | O=c1c(Cc2ccccc2)nc2c(Cc3ccccc3)[nH]c(-c3ccc(OCCCO)cc3)cn1-2 [6-Alkyl3OH-2H-CTZ] | 5.03 | [65] nm | 411 nm | 23.9 | [56] nm | 413 | – | – | –
5 | COCCCOc1ccc(-c2cn3c(=O)c(Cc4ccccc4)nc-3c(Cc3ccccc3)[nH]2)cc1 [6-Alkyl3OMe-2H-CTZ] | 2.93 | [49] nm | 416 nm | 29.3 | [53] nm | 413 | – | – | –
6 | O=c1c(Cc2ccccc2)nc2c(Cc3ccccc3)[nH]c(-c3ccc(OCCCCO)cc3)cn1-2 [6-Alkyl4OH-2H-CTZ] | 3.45 | [69] nm | 404 nm | 23.9 | [68] nm | 405 | – | – | –
7 | O=c1c(Cc2ccc(O)cc2)nc2c(Cc3ccccc3)[nH]c(-c3ccc(OCCCCO)cc3)cn1-2 [6-Alkyl4OH-CTZ] | 11.8 | [69] nm | 404 nm | 59.8 | [60] nm | 412 | – | – | –
8 | O=c1c(Cc2ccccc2)nc2c(Cc3ccccc3)[nH]c(-c3ccc(OCCCCCO)cc3)cn1-2 [6-Alkyl5OH-2H-CTZ] | 2.88 | [70] nm | 403 nm | 18.0 | [68] nm | 406 | – | – | –
9 | COCc1ccc(-c2cn3c(=O)c(Cc4ccccc4)nc-3c(Cc3ccccc3)[nH]2)cc1 [6-Ether-2H-CTZ, reference compound] | 0.36 | – | (393) nm | 2.17 | [53] nm | 406 | – | – | –
10 | CCc1ccc(-c2cn3c(=O)c(Cc4ccccc4)nc-3c(Cc3ccccc3)[nH]2)cc1 [6-Ethyl-2H-CTZ] | 0.62 | – | (402) nm | 18.0 | [50] nm | 411 | – | – | –
11 | Cc1ccc(-c2cn3c(=O)c(Cc4ccccc4)nc-3c(Cc3ccccc3)[nH]2)cc1 [6-Methyl-2H-CTZ] | 1.44 | [45] nm | 408 nm | 25.3 | [49] nm | 411 | – | – | –
12 | O=c1c(Cc2ccccc2)nc2c(Cc3ccccc3)[nH]c(-c3ccccc3)cn1-2 [DeepBlueC (trade name), reference compound] | 2.30 | [57] nm | 416 nm | 5.80 | [51] nm | 410 | about 4% | about 80 nm | around 400 nm
13 | CCCCOc1ccc(-c2cn3c(=O)c(Cc4ccc(O)cc4)nc-3c(Cc3ccccc3)[nH]2)cc1 [Example 6-Alkyl3-CTZ] | 8.07 | [46] nm | (413) nm | 39.6 | [60] nm | 412 | – | – | –
14 | COCc1ccc(-c2cn3c(=O)c(Cc4ccc(O)cc4)nc-3c(Cc3ccccc3)[nH]2)cc1 [Example 6-Ether-CTZ, reference compound] | 0.85 | – | (420) nm | 8.94 | [49] nm | 411 | – | – | –
15 | CCc1ccc(-c2cn3c(=O)c(Cc4ccc(O)cc4)nc-3c(Cc3ccccc3)[nH]2)cc1 [Example 6-Ethyl-CTZ] | 2.68 | – | (410) nm | 29.4 | [60] nm | 406 | – | – | –
